Columns and labels:
[1] = test system: subjects with fibromyalgia; test: PROMISFM fatigue profile; format: in vivo, human
Description: As used herein, the “PROMISFM” fatigue profile is Patient Reported Outcomes Measurement Information System Fibromyalgia, which is a 16-question instrument which has four 4-item short forms that examines the intensity of the impact of fatigue in social, cognitive and motivation subdomains. All 16 questions are based on a 5-point numerical rating scale/Likert scale ranging from 1 to 5, with different categorical responses. Lower scores represent a better quality of life. The PROMISFM fatigue profile is made of the 4 following subdomains: • Experience Subdomain Score 3 Questions with Scores Ranging from 1 (Not at All) to 5 (Very Much): • How tired did you feel on average? • How fatigued were you on average? • How exhausted were you on average? 1 Question with Scores Ranging from 1 (None) to 5 (Very Severe): • What was the level of your fatigue on most days? • Sum of those 4 Questions make up the Experience Subdomain Score Ranging from 4 to 20 • Social Impact Subdomain Score 2 Questions with Scores Ranging from 1 (Not at All) to 5 (Very Much): • To what degree did your fatigue interfere with your social activities? • To what degree did your fatigue interfere with your ability to engage in recreational activities? 2 Questions with Scores Ranging from 1 (Never) to 5 (Always): • How often did you have to limit your social activities because of your fatigue? • How often were you too tired to socialize with your friends? • Sum of those 4 Questions make up the Social Impact Subdomain Score Ranging from 4 to 20 • Motivational Impact Subdomain Score 2 Questions with Scores Ranging from 1 (Not at All) to 5 (Very Much): • To what degree did you have trouble starting things because of your fatigue? • To what degree did you have trouble finishing things because of your fatigue? […] 2 Questions with Scores Ranging from 1 (Never) to 5 (Always): • How often were you too tired to think clearly? • How often did your fatigue make you more forgetful? • Sum of those 4 Questions make up the Cognitive Impact Subdomain Score Ranging from 4 to 20
If at least 2 questions were answered within an individual subdomain, that subdomain score was imputed if missing responses are present. Each subdomain score was multiplied by 4/(number of questions answered) and rounded off to the nearest whole number. Otherwise, that subdomain score was set to missing. The total score was calculated by taking the sum of those 4 subdomains and ranged from 16 to 80. If any of the subdomains were missing, the total score was set to missing. The PROMISFM fatigue profile assessment was collected and analyzed at visits Screening, Day 1, Week 2, Week 4, Week 6, and Follow-up (Week 7). The observed total and subdomain scores, changes from baseline, and changes from treatment periods were summarized using descriptive statistics. Additionally, the treatment group comparisons were analyzed using the paired t-test and nonparametric Wilcoxon signed-rank test. All PROMISFM fatigue profile data collected and the calculated total and subdomain scores at each visit were presented in a subject listing.

[2] = test system: visual stimulus-evoked brain activation; test: fMRI of visual stimulation, BOLD activations; format: in vivo, human; settings: either dose relative to baseline or placebo
Description: As used herein, “Functional Magnetic Resonance Imaging of Evoked Pain and Visual Stimulation” refers to the following procedure. During evoked pain and visual stimulation fMRI paradigms, participants were lying in the scanner as they received either pressure stimulation to their calf muscle or they experienced an unpleasant visual stimulus. For both pain and visual stimulation, whole-brain Blood Oxygenation Level Dependent (BOLD) functional images were acquired.
Neural mechanisms of this multimodal hypersensitivity were assessed using fMRI. Whole brain BOLD functional images were acquired. The visual stimulation task was 3 minutes in duration and consisted of 2 different visual stimuli presented in a block design. The control stimulus was a fixed crosshair centered in the middle of a solid color background, whereas the experimental stimulus was a flashing annulus checkerboard (8 Hz frequency) (see below figure of example of visual stimuli). […]
Several analyses were conducted with the fMRI resting state and task data. Results were assessed by: 1) a primary analysis, where a finding was deemed significant with a corrected cluster level p<0.05, derived from an uncorrected voxel-wise p<0.001, and 2) an exploratory analysis, where a finding was deemed significant with an uncorrected voxel-wise p<0.005 and having a cluster greater than or equal to 80 contiguous voxels. […]

## CC(C)C(=O)N1CCC[C@]12CN([C@H](C(N)=O)[C@@H](C)O)C2=O [NYX-2925, (2S, 3R)-3-hydroxy-2-((R)-5-isobutyryl-1-oxo-2,5-diazaspiro[3.4]octan-2-yl)butanamide]
[1]; NYX-2925 20 mg
  PROMISFM total fatigue profile score, change from baseline: reductions from baseline
[1]; NYX-2925 treatment at Weeks 4 and 6
  PROMISFM Cognitive Impact Subdomain Score, changes from Week 2 (placebo): not statistically significant
[1]; Week 2 (placebo) to Week 4 (NYX-2925 20 mg), not statistically significant
  PROMISFM Fatigue Profile Total Score, mean change: −3.4
[1]; Week 2 (placebo) to Week 6 (NYX-2925 200 mg), p=0.0036
  PROMISFM Experience Subdomain Score, mean change: −2.2
[1]; Week 2 (placebo) to Week 6 (NYX-2925 200 mg), p=0.0049
  PROMISFM Fatigue Profile Total Score, mean change: −5.6
[1]; Week 2 (placebo) to Week 6 (NYX-2925 200 mg), p=0.0329
  PROMISFM Social Impact Subdomain Score, mean change: −1.4
[1]; Week 2 (placebo) to Week 6 (NYX-2925 200 mg), p=0.0490
  PROMISFM Motivational Impact Subdomain Score, mean change: −1.0
[1]; week six, after four weeks of NYX-2925, scale 16 to 80, n=21
  PROMISFM Fatigue Profile total score, reduction from baseline: 5.4 point
[2]
  BOLD activation, visual task: No significant or marginal changes in BOLD activation
